Measured values as given in PMC10979453, “Antioxidant and Angiotensin-Converting Enzyme Inhibitory Activity of Faba Bean-Derived Peptides After In Vitro Gastrointestinal Digestion: Insight into Their Mechanism of Action” (Journal of Agricultural and Food Chemistry, 2024).
Where two headings read alike, the source gives them in different places. Peptide text beside a SMILES is read from it.

Assays:
[1] = ABTS free radical scavenging assay; settings: for ABTS activity, times lower than Trolox: range over the named peptides
Procedure: (§1) For the DPPH, ABTS, and iron chelating assays, the peptides were first screened at a high dose (10 mM). […] The EC50 values were calculated using a four-parameter logistic curve regression, and Trolox was used as a positive control. For the ORAC assay, the results were expressed as μmol of Trolox equivalent per mM of peptides.

[2] = Oxygen Radical Absorption Capacity (ORAC) assay; settings: for ORAC activity per mg of peptides: as given in the text; for ORAC activity, times higher than Trolox: on a molar basis, range over the named peptides
Procedure: 2,2-Diphenyl-1-picrylhydrazyl (DPPH), 2,2′-azinobis(3-ethylbenzothiazoline-6-sulfonic acid) (ABTS), Oxygen Radical Absorption Capacity (ORAC), and the iron chelating assays were performed following the methods of Orona-Tamayo, Valverde, Nieto-Rendón, and Paredes-López (2015),[17] Re, Pellegrini, Proteggente, Pannala, Yang, and Rice-Evans (1999),[18] Tomer, McLeman, Ohmine, Scherer, Murray, and O’Neill (2007),[19] and of Orona-Tamayo et al. (2015),[17] respectively, as described in Martineau-Côté, Achouri, Wanasundara et al. (2022).[16] For the DPPH, ABTS, and iron chelating assays, the peptides were first screened at a high dose (10 mM). Peptides with antioxidant activity were then tested at different concentrations (0.1–10 mM) to evaluate the dose–response effect. The results were expressed as the half-maximal effective concentration (EC50), which was defined as the required peptide concentration, leading to 50% scavenging or chelating activity. The EC50 values were calculated using a four-parameter logistic curve regression, and Trolox was used as a positive control. For the ORAC assay, the results were expressed as μmol of Trolox equivalent per mM of peptides.

[3] = free amino acids; cited from earlier work
[4] = target: T1, Angiotensin-converting enzyme (ACE) from rabbit lung (Oryctolagus cuniculus, UniProt P12822); assay: ACE inhibition kinetics (Lineweaver-Burk and secondary plots); assay type: biochemical; settings: HHL 0.5–2 mM, read-out: inhibition constant (Ki)
T1 construct: Angiotensin-converting enzyme (ACE) from rabbit lung (A6778); purchased Sigma-Aldrich A6778; host or cells: rabbit lung (tissue-derived enzyme)
T1 sequence (P12822 34-1310): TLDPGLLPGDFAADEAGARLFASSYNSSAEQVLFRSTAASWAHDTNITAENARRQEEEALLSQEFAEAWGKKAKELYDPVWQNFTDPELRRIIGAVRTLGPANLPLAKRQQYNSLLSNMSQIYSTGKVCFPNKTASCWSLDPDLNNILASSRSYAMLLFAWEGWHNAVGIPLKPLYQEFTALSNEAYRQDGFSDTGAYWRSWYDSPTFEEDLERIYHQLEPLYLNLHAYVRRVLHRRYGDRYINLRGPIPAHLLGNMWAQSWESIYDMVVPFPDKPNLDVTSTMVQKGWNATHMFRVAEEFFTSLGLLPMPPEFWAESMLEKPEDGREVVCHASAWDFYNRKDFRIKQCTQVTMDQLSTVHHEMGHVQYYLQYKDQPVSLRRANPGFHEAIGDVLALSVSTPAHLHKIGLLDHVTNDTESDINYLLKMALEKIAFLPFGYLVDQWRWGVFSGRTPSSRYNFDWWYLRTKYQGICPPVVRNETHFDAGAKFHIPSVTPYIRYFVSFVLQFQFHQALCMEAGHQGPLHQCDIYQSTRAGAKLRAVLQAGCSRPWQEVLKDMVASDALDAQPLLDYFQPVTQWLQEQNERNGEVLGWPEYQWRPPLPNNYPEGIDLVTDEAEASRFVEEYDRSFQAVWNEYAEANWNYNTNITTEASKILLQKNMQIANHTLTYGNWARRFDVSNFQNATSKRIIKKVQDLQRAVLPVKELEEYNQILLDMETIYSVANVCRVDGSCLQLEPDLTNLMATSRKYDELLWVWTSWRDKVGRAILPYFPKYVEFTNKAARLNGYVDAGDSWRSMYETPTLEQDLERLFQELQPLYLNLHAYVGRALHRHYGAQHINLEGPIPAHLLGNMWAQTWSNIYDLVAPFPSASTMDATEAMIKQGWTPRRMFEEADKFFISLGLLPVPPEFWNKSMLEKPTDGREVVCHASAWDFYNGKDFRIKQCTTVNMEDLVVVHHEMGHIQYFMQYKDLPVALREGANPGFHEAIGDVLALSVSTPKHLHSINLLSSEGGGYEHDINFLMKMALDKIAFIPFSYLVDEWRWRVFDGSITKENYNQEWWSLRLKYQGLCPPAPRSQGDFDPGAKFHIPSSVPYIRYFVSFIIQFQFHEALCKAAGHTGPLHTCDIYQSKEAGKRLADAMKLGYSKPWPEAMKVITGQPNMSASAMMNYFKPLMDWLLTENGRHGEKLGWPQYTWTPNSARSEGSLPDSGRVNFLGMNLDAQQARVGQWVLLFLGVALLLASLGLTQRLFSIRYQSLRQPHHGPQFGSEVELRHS
Procedure: A kinetic study was performed following the procedure of Barbana et al. (2011)[23] to determine the inhibition pattern of four faba bean peptides with ACE inhibition activity (VIPTEPPH, VIPTEPPHA, VVIPTEPPHA, and VVIPTEPPH). The initial rate of reaction was measured with different HHL (0.5–2 mM) and peptides concentrations. Lineweaver–Burk double reciprocal plots were built to identify the inhibition pattern.
The ACE inhibition pattern of VIPTEPPH, VIPTEPPHA, VVIPTEPPHA, and VVIPTEPPH was assessed through kinetic experiments. The initial velocity of reaction was measured at different substrate (0.5–2 mM) and peptide concentrations, and Lineweaver–Burk double reciprocal plots were built to identify the inhibition pattern. […] The inhibitor binding site is, therefore, located outside the enzyme active site. The loss of ACE activity in the presence of peptides can, therefore, be explained by conformational changes caused by peptide binding rather than competition for the active site.
The inhibition constant (Ki) was calculated from secondary plots for each peptide. The secondary plots were constructed by plotting the Lineweaver–Burk curve slope against the peptide concentration. The Ki value was calculated from the negative intercept on the X-axis of the secondary plot. […] These Ki values are nearly identical to the IC50, confirming the noncompetitive inhibition pattern. The minor differences in the IC50 and Ki values can be explained by experimental imprecision.

[5] = target: T1, Angiotensin-converting enzyme (ACE) from rabbit lung; assay: in vitro ACE inhibitory activity (HHL substrate); assay type: biochemical; settings: for IC50: mean ± SD; for inhibition at 10000 µM: peptide concentration 10 mM
From the text: Angiotensin-converting enzyme (ACE) from rabbit lung (A6778), N-hippuryl–His–Leu hydrate (HHL) (H1635), and captopril were purchased from Sigma-Aldrich (St. Louis, MO, USA).
ACE from rabbits was used for in vitro testing, since rabbit and human ACE are nearly homologous and their active sites are highly similar.[24]

[6] = DPPH free radical scavenging assay; settings: mean ± SD; tested at 0.1–10 mM
Procedure: as §1

[7] = read-out: ACE Inhibition (IC50 μM)
[8] = read-out: ACE Inhibition (IC50 μg/mL) (converted)

Row | Compound | ORAC activity [3] [μMol TE eq/mM] | Ki [4] [µM] | IC50 [5, 7] [µM] | IC50 [5, 8] [µM] | inhibition at 10000 µM [5] [%] | other results
1 | TETWNPNHPE [synthesized faba bean-derived peptide, parent protein legumin B] |  |  |  |  |  | ABTS activity, times lower than Trolox [1]: 8 to 66 times; ORAC activity ([2]; as given in the abstract): 2.84 ± 0.08 mM Trolox equivalent/mM; ORAC activity per mg of peptides [2]: 2.3 μMol Trolox eq/mg; ORAC activity, times higher than Trolox [2]: 2.5 to 2.8 times
2 | N[C@@H](Cc1c[nH]c2ccccc12)C(=O)O [tryptophan] | 2790 |  |  |  |  | 
3 | N[C@@H](Cc1ccc(O)cc1)C(=O)O [tyrosine] | 1020 |  |  |  |  | 
4 | CC[C@H](C)[C@H](NC(=O)[C@@H](NC(=O)[C@@H](N)C(C)C)C(C)C)C(=O)N1CCC[C@H]1C(=O)N[C@H](C(=O)N[C@@H](CCC(=O)O)C(=O)N1CCC[C@H]1C(=O)N1CCC[C@H]1C(=O)N[C@@H](Cc1c[nH]cn1)C(=O)N[C@@H](C)C(=O)O)[C@@H](C)O [VVIPTEPPHA] (H-VVIPTEPPHA-OH) |  | 54 | 50 ± 5 | 50 | 100 | 
5 | N[C@@H](Cc1c[nH]cn1)C(=O)O [histidine] | 78 |  |  |  |  | 
6 | CC[C@H](C)[C@H](NC(=O)[C@@H](N)C(C)C)C(=O)N1CCC[C@H]1C(=O)N[C@H](C(=O)N[C@@H](CCC(=O)O)C(=O)N1CCC[C@H]1C(=O)N1CCC[C@H]1C(=O)N[C@@H](Cc1c[nH]cn1)C(=O)N[C@@H](C)C(=O)O)[C@@H](C)O [VIPTEPPHA] (H-VIPTEPPHA-OH) |  | 107 | 123 ± 5 | 123 | 100 | 
7 | CC[C@H](C)[C@H](NC(=O)[C@@H](NC(=O)[C@@H](N)C(C)C)C(C)C)C(=O)N1CCC[C@H]1C(=O)N[C@H](C(=O)N[C@@H](CCC(=O)O)C(=O)N1CCC[C@H]1C(=O)N1CCC[C@H]1C(=O)N[C@@H](Cc1c[nH]cn1)C(=O)O)[C@@H](C)O [VVIPTEPPH] (H-VVIPTEPPH-OH) |  | 45 | 43 ± 1 | 43.5 | 100 | 
8 | TETWNPNHPEL [synthesized faba bean-derived peptide, parent protein legumin B] |  |  |  |  |  | EC50 ([1]; mean ± SD, tested at 0.1–10 mM): 500 ± 200 µM; ABTS activity, times lower than Trolox [1]: 8 to 66 times; EC50 [6]: 2100 ± 100 µM; ORAC activity per mg of peptides [2]: 1.9 μMol Trolox eq/mg; ORAC activity, times higher than Trolox [2]: 2.5 to 2.8 times
9 | CC[C@H](C)[C@H](NC(=O)[C@@H](N)C(C)C)C(=O)N1CCC[C@H]1C(=O)N[C@H](C(=O)N[C@@H](CCC(=O)O)C(=O)N1CCC[C@H]1C(=O)N1CCC[C@H]1C(=O)N[C@@H](Cc1c[nH]cn1)C(=O)O)[C@@H](C)O [VIPTEPPH] (H-VIPTEPPH-OH) |  | 87 | 90 ± 10 | 91.1 | 100 | 
